Experiment [1] relates to BMDMs. In words: Proteomic analysis of BMDMs. The format is cell-based, mouse. As to conditions: BMDMs pre-treated vs DMSO, LPS 4 h. As for the experimental part: BMDMs (from 5 independent mice) were plated onto 10-cm dishes and treated as indicated. At the experimental endpoint, cells were washed with PBS on ice and centrifuged at 1500 rpm for 5 mins at 4° C. and frozen at -80° C. Cell pellets were lysed, reduced and alkylated in 50 μl of 6M Gu-HCl, 200 mM Tris-HCl PH 8.5, 10 mM TCEP, 15 mM Chloroacetamide by probe sonication and heating to 95° C. for 5 min. Protein concentration was measured by a Bradford assay and initially digested with LysC (Wako) with an enzyme to substrate ratio of 1/200 for 4 h at 37° C. Subsequently, the samples were diluted tenfold with water and digested with porcine trypsin (Promega) at 37° C. overnight. Samples were acidified to 1% TFA, cleared by centrifugation (16,000 g at RT) and approximately 20 μg of the sample was desalted using a Stage-tip. Eluted peptides were lyophilized, resuspended in 0.1% TFA/water and the peptide concentration was measured by A280 on a nanodrop instrument (Thermo). The sample was diluted to 2 μg/5 μl for subsequent analysis. The tryptic peptides were analysed on a Fusion Lumos mass spectrometer connected to an Ultimate Ultra3000 chromatography system (both Thermo Scientific) incorporating an autosampler. 2 μg of de-salted peptides were loaded onto a 50 cm emitter packed with 1.9 μm ReproSil-Pur 200 C18-AQ (Dr Maisch, Germany) using a RSLC-nano uHPLC systems connected to a Fusion Lumos mass spectrometer (both Thermo, UK). Peptides were separated by a 140 min linear gradient from 5% to 30% acetonitrile, 0.5% acetic acid. […] Raw files were analysed and quantified by searching against the Uniprot Mus Musculus database using DIA-NN 1.8 (https://github.com/[…]). […] Data were expressed as mean±standard error of the mean (SEM) unless stated otherwise. […] The proteomics cut-offs for analysis were a log2FC of 0.5 and a false discovery rate (FDR)<0.05, determined using t statistics. […] Overrepresentation analysis (ORA) of significant changes were assessed using Enrichr^4 and the Bioconductor package clusterProfiler 4.0 in R (version 3.6.1). […]

The test system of experiment [2] is mice. In words: LPS-induced inflammation model, serum IFN-β. Type of experiment: in vivo, mouse. As to conditions: 50 mg/kg intraperitoneally 1 hour before LPS 2.5 mg/kg, blood 2 hours later. The protocol: 6-week-old male mice were used, and littermates were randomly assigned to experimental groups. Compounds were resuspended in 10% DMSO followed by 90% cyclodextrin/PBS (20% w/v). Mice were injected intraperitoneally with vehicle, FHIN1 or DMF (both 50 mg/kg) at a volume of 200 μl per injection. 1 hour later, mice were injected intraperitoneally with PBS or LPS from E. coli (2.5 mg/kg, Sigma) at a volume of 100 μl per injection. 2 hours later, mice were euthanised and blood was harvested retro-orbitally. Blood was allowed to clot for 30 mins at room temperature before it was centrifuged at 5000×g for 10 mins at 4° C. The serum was removed and IFN-β concentration was determined by ELISA. DuoSet ELISA kits for IL-1β, TNFα, IL-6, IL-10, and GDF15 were purchased from R&D Systems and were carried out according to the manufacturer's instructions with appropriately diluted cell supernatants added to each plate in duplicate or triplicate. IFN-β was determined using DuoSet ELISA kit from R&D Systems or Abcam (ab252363). […] Absorbance at 450 nm was quantified using a FLUOstar Optima plate reader. Corrected absorbance values were calculated by subtracting the background absorbance, and cytokine concentrations were subsequently obtained by extrapolation from a standard curve plotted on GraphPad Prism 9.2.0.

Structures are written as SMILES. Structures can show the parent of a compound that is named as a salt.

Experimental findings from patent US20250018019A1, “TREATMENT OF INTERFERON DRIVEN INFLAMMATION” (The Provost, Fellows, Foundation Scholars and the other …, priority 2023, published 2025) are described below.

For `COC(=O)/C=C/C(=O)OC` [DMF, dimethyl fumarate], the “GDF15 protein (proteomics)” value in experiment [1] is “one of the most significantly increased proteins”. In experiment [2], the “LPS-induced IFN-β release into the serum” value was “no effect”.

In the case of `CCOC(=O)[C@@]12CCCC=C1N(Cc1ccc(-c3ccccc3)cc1)C(=O)[C@H]2CC(=O)NC` [FHIN1, Fumarate hydratase-IN-1], in experiment [1], the “GDF15 protein (proteomics)” value is “one of the most significantly increased proteins” and the “SLC25A39 protein (proteomics)” value was “increased”. Moreover, the “LPS-induced IFN-β release into the serum” value in experiment [2] is “increased”.
